From a melting point compilation (Tetko et al.; mined from patent text by program, amines drawn as free bases though some values may be those of a salt)

SMILES | melting point
COC(=O)c1cc(CC(C)NCC(O)c2ccc(O)c(CO)c2)ccc1OC (stereo not drawn) | 69 to 73 °C
CN1C(=O)C(c2ccc(Cl)cc2)SC1c1cccnc1 (stereo not drawn) | 77.5 to 79 °C
CN1CCN(c2cccc3c2CC(C(=O)Nc2ccc(N4CCOCC4)cc2)C3)CC1 (stereo not drawn) | 248 to 249 °C
Cc1cc(F)ccc1-c1nc(N[C@@H](C)CO)nc2c1ccc(=O)n2-c1ccccc1F | 114 to 120 °C
O=C(OCn1c(=O)[nH]cc(F)c1=O)c1cccnc1 | 179 to 180 °C
CCOC(=O)C1=C(C(F)(F)F)Nc2n[nH]cc2C1c1ccccc1 (stereo not drawn) | 110 to 115 °C
COc1ccc2ccc(C(O)C(F)(F)F)cc2c1 (stereo not drawn) | 85 to 87 °C
CC(C)Oc1ccc(/C=C(\NC(=O)c2ccc(OCCCC3CC3)cc2)C(=O)NCCO)cc1 | 64 to 66 °C
COc1c(N2CCC(=NO)CC2)c(F)cc2c(=O)c(C(=O)O)cn(C3CC3)c12 | 258 to 261 °C
Cc1cccc(Nc2cc(Cl)nc(SCC(=O)NC(C)CO)n2)c1C (stereo not drawn) | 170 to 172 °C
Clc1cc2cc[nH]c2c2cccnc12 | 248 to 250 °C
CCn1cc(C(=O)Nc2nccs2)c2ccc(Cl)cc21 | 234 to 236 °C
CCCc1c(OCCCCCC(=O)c2ccc(OC)c(OC)c2)ccc(C(=O)OC)c1O | 117 to 119 °C
C=CCOC(=O)CCCOc1cc([N+](=O)[O-])c(CO)cc1OC | 73 to 75 °C
CC(=O)OCc1nn(-c2ccc(F)cc2)c2c1CCCC2Cc1cccc2ccccc12 (stereo not drawn) | 142 to 144 °C
CCOC(=O)CN1CCC2(CC1)CC(c1ccc(C#N)cc1)=NO2 | 116 to 118 °C
CCOC(=O)NC(C)C(=O)c1ccc2cc(OC)ccc2c1 (single isomer, unassigned; (+)) | 96 to 97 °C
COC(=O)C(Oc1nc(OC)cc(OC)n1)C(C)(N=[N+]=[N-])c1ccccc1 (stereo not drawn) | 118 to 120 °C
CC(=O)OCc1ccccc1S(N)(=O)=O | 131 to 133 °C
Cc1cc(-c2c(C)ccc(C(=S)OC(C)(C)C)c2C)on1 | 102 to 103 °C
CS(=O)(=O)OCc1cc(-c2ccc(OCc3ccccc3)cc2)no1 | 110 to 112 °C
Cc1c(C(=O)Nc2ccc(N3CCCC3)c(C#N)c2)cnn1-c1ccc(Cl)cc1 | 205 °C
CC(C)(C)OC(=O)CCc1cccc(-c2nc(=O)c3ccc(F)cc3s2)n1 | 158 to 160 °C
NS(=O)(=O)c1ccc(-c2cn(-c3nc(-c4ccc(C(F)(F)F)cc4)cc(C(F)(F)F)n3)cn2)s1 | 281 °C

SMILES | melting point
CCN(c1ccc(C)c2cc(-c3ncc(CCl)s3)[nH]c12)S(=O)(=O)c1cccs1 | 177 to 178 °C
COC(=O)C(Cc1c[nH]c2ccccc12)NC(=O)c1ccc2c(c1)OCO2 (stereo not drawn) | 123 to 124 °C
CCCCc1nc2c(N)nc3cccnc3c2n1CCNC(=O)CC(C)CCC=C(C)C (stereo not drawn) | 163 to 164 °C
Cc1c(-c2ccc3oc(=O)n(C)c3c2)nc2c(O)cccn12 | > 280 °C
CC(=O)Nc1ccc(-c2ncc(C(=O)O)c(O)n2)cc1 | > 310 °C
Ic1ccc2c3c(cccc13)C(=NCc1ccccc1)N2 | 160 to 163 °C
COc1cc(-c2cnc(N[N+](=O)[O-])[nH]c2=O)ccn1 | 194 to 196 °C
COc1cc2c(cc1OC)C(=C(C#N)SCC(CN1CCOCC1)OC(=O)c1ccccc1)NCC2 (stereo not drawn) | 144 °C
Cc1cc(C)c(C(=O)CCCCC(=O)O)c(O)c1C | 146 to 148 °C
CCOC(=O)C(O)=Cc1ncc(Cc2ccc(F)cc2)s1 | 160 to 162 °C
CNC(=O)NC(=O)C(CC1CCC(=O)C1)c1ccc(Cl)c(Cl)c1 (stereo not drawn) | 70 to 74 °C
COC(=O)[C@H]1NC(=O)[C@H]1NC(=O)Cc1ccccc1 (relative stereo) | 176 to 180 °C
NC(=O)Nc1ccc2c(=O)n(CCCCN3CC=C(c4ccccc4)CC3)c(=O)[nH]c2c1 | 260 °C
Cc1cc(-c2csc(-c3ccc(C(=O)O)cc3)n2)c(C)o1 | 264 to 265 °C
Cc1nc(-c2cnn(-c3c(Cl)cc(C(F)(F)F)cc3Cl)n2)[nH]c1[N+](=O)[O-] | 231 to 232 °C
COc1ccc(CSc2nnc(-c3ccc4[nH]ncc4c3)o2)cc1 | 204 to 205 °C
O=C(c1ccccc1)c1ccc(N2CCCC2=O)cc1 | 156 to 158 °C
Cn1cc(C(=O)c2ccc(F)cc2)cc1C(=O)c1ccncc1 | 155 to 157 °C
O=C(OCc1ccc(C(F)(F)F)cc1)N1CCC2(CC1)Cn1cc([N+](=O)[O-])nc1O2 | 189 to 190 °C
CC12CCC(=O)NC1=CCC1C2CCC2(C)C(=NN)CCC12 (stereo not drawn) | 379 to 382 °C
CC1=C(C(=O)OC(C)(C)C)C(c2ccc(F)c(Br)c2)C(C(=O)OC(C)(C)C)=C(C)N1 | 171 to 172 °C
COc1ccc(-c2nc3sccn3c2/C=C/C(=O)c2ccc3c(c2)OCO3)cc1 | 189 to 191 °C
CC1(C)Oc2ccc(C#N)cc2[C@@H](n2c(=O)[nH]c3ccccc32)[C@@H]1O (relative stereo) | 255 to 257 °C
CCOC(=O)c1cc(CC)sc1Nc1c([N+](=O)[O-])cccc1C(F)(F)F | 72 to 73 °C
